Reference: patent publication US20040122218A1, “Pyrrolopyridine potassium channel openers” (priority 2002, published 2004)

Key:
Landrace pig bladders = test: In vitro functional model: field-stimulated bladder tissue strips; conditions: concentration range of 10^−9 to 10^−5 M, cumulative
Experimental: In Vitro Functional Model
Compounds were evaluated for functional BK channel opening activity using tissue strips obtained from Landrace pig bladders. Landrace pig bladders were obtained from female Landrace pigs of 9-30 kg. Landrace pigs were euthanized with an intraperitoneal injection of pentobarbital solution, Somlethal®, J.A. Webster Inc., Sterling Mass. The entire bladder was removed and immediately placed into Krebs Ringer bicarbonate solution (composition, mM: NaCl, 120; NaHCO3, 20; dextrose, 11; KCl, 4.7; CaCl2, 2.5; MgSO4, 1.5; KH2PO4, 1.2; K2EDTA, 0.01, equilibrated with 5% CO2/95% O2 pH 7.4 at 37° C.). Propranolol (0.004 mM) was included in all of the assays to block β-adrenoceptors. The trigonal and dome portions were discarded. Strips 3-5 mm wide and 20 mm long were prepared from the remaining tissue cut in a circular fashion. The mucosal layer was removed. One end was fixed to a stationary glass rod and the other to a Grass FT03 transducer at a basal preload of 1.0 gram. Two parallel platinum electrodes were included in the stationary glass rod to provide field stimulation of 0.05 Hz, 0.5 milli-seconds at 20 volts. […] The maximal efficacy of each compound (expressed as % relative to P1075) is reported. […] Agonist potencies were also expressed as an index relative to P1075. The index was calculated by dividing the ED50 for P1075 by the ED50 for the test agonist in a given tissue. […]

Row | Structure (SMILES) | melting point [°C] | effect on stimulated twitch (Landrace pig bladders)
1 | N#Cc1c(N2CCC[C@@H]2CO)[nH]c2cccnc12 [Example 9, (R)-2-(2-Hydroxymethyl-pyrrolidin-1-yl)-1H-pyrrolo [3,2-b]pyridine-3-carbonitrile] | 207 to 209 | 
2 | N#Cc1c(N2CCC[C@H]2CO)[nH]c2cccnc12 [Example 10, (S)-2-(2-Hydroxymethyl-pyrrolidin-1-yl)-1H-pyrrolo [3,2-b]pyridine-3-carbonitrile] | 207 to 209 | 
3 | N#Cc1c(N2CCCCC2)[nH]c2cccnc12 [Example 18, 2-Piperidin-1-yl-1H-pyrrolo[3,2-b]pyridine-3-carbonitrile] | 241 to 242 | 
4 | CCC(C)(C)N=C(NC#N)Nc1cccnc1 [Example P1075] |  | completely eliminated the stimulated twitch
